Laboratory results taken from ChEMBL document CHEMBL1201862, “PubChem BioAssay data set” (2004).
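Interpolation was linear, between the two tested concentrations surrounding the appropriate level; five concentrations were tested over 48 hours in 96-well plates. GI50 is the concentration that inhibits growth by half.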 Active and inactive are the calls of the source. Rule as the data show it: active = GI50 up to about 1.1 µM and inactive = higher.

Tests used:
Assay in all cases: DTP human tumour cell line panel, 48 h
786-0 = tested on: 786-0
A498 = tested on: A498
A549 = tested on: A549
ACHN = tested on: ACHN
CAKI-1 = tested on: CAKI-1
CCRF-CEM = tested on: CCRF-CEM
COLO 205 = tested on: COLO 205
DLD-1 = tested on: DLD-1
DMS-114 = tested on: DMS-114
DMS-273 = tested on: DMS-273
EKVX = tested on: EKVX
HCC 2998 = tested on: HCC 2998
HCT-116 = tested on: HCT-116
HL-60 = tested on: HL-60
HOP-18 = tested on: HOP-18
HOP-62 = tested on: HOP-62
HOP-92 = tested on: HOP-92
HT-29 = tested on: HT-29
IGROV-1 = tested on: IGROV-1
K562 = tested on: K562
KM-20L2 = tested on: KM-20L2
KM12 = tested on: KM12
LOX IMVI = tested on: LOX IMVI
LXFL 529 = tested on: LXFL 529
M14 = tested on: M14
M19-MEL = tested on: M19-MEL
MOLT-4 = tested on: MOLT-4
Malme-3M = tested on: Malme-3M
NCI-H226 = tested on: NCI-H226
NCI-H23 = tested on: NCI-H23
NCI-H460 = tested on: NCI-H460
NCI-H522 = tested on: NCI-H522
OVCAR-3 = tested on: OVCAR-3
OVCAR-4 = tested on: OVCAR-4
OVCAR-5 = tested on: OVCAR-5
OVCAR-8 = tested on: OVCAR-8
RPMI-8226 = tested on: RPMI-8226
RXF 393 = tested on: RXF 393
SF-268 = tested on: SF-268
SF-295 = tested on: SF-295
SF-539 = tested on: SF-539
SK-MEL-28 = tested on: SK-MEL-28
SK-MEL-2 = tested on: SK-MEL-2
SK-MEL-5 = tested on: SK-MEL-5
SK-OV-3 = tested on: SK-OV-3
SN12C = tested on: SN12C
SNB-75 = tested on: SNB-75
SR = tested on: SR
SW-620 = tested on: SW-620
TK-10 = tested on: TK-10
U-251 = tested on: U-251
UACC-257 = tested on: UACC-257
UACC-62 = tested on: UACC-62
UO-31 = tested on: UO-31

Measured: GI50

COc1cc(/C=C2/C(=O)N(C(=O)OC(C)C)C(Cc3cc(OC)c(OC)c(C)c3OC)C(=O)N2Cc2ccccc2)c(OC)c(C)c1OC (centres undefined)
inactive: 786-0 > 100 µM | A498 73.1 µM | A549 56.9 µM | ACHN > 100 µM | CAKI-1 > 100 µM | CCRF-CEM 13.1 µM | COLO 205 27.2 µM | DLD-1 > 100 µM | DMS-114 13.6 µM | DMS-273 14 µM | EKVX > 100 µM | HCC 2998 38.4 µM | HCT-116 27.5 µM | HL-60 3.52 µM | HOP-18 49.5 µM | HOP-62 > 100 µM | HOP-92 4 µM | HT-29 27.9 µM | IGROV-1 > 100 µM | K562 6.79 µM | KM-20L2 24.8 µM | KM12 54.2 µM | LOX IMVI > 100 µM | LXFL 529 10.4 µM | M14 50.9 µM | M19-MEL 57 µM | MOLT-4 3.33 µM | Malme-3M 22.2 µM | NCI-H226 3.35 µM | NCI-H23 13.2 µM | NCI-H460 3.51 µM | NCI-H522 3.74 µM | OVCAR-3 12.7 µM | OVCAR-4 20.9 µM | OVCAR-5 > 100 µM | OVCAR-8 28.2 µM | RPMI-8226 6.58 µM | RXF 393 20.4 µM | SF-268 > 100 µM | SF-295 68.7 µM | SF-539 > 100 µM | SK-MEL-28 > 100 µM | SK-MEL-2 27.1 µM | SK-MEL-5 14.4 µM | SK-OV-3 91.2 µM | SN12C 54.8 µM | SNB-75 56 µM | SR 7.24 µM | SW-620 14.8 µM | TK-10 35.6 µM | U-251 86.7 µM | UACC-257 7.94 µM | UACC-62 > 100 µM | UO-31 9.06 µM
